Reference: PubChem BioAssay (NCI)
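Test compounds were applied to cells in 96-well plates for 48 hours at 5 doses. GI50 marks 50% less growth. Definition used: TGI = concentration required for complete inhibition of growth.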

Assays:
Test in all cases: NCI-60 cell line screen, 48 h
[1] = tested on: UACC-257 melanoma
[2] = tested on: TK-10 renal
[3] = tested on: NCI-H460 lung
[4] = tested on: NCI-H226 lung
[5] = tested on: HCC-2998 colon
[6] = tested on: M14 melanoma
[7] = tested on: SNB-19 CNS
[8] = tested on: SF-268 CNS
[9] = tested on: RPMI-8226 leukemia
[10] = tested on: NCI-H522 lung
[11] = tested on: A549 NSCLC
[12] = tested on: OVCAR-5 ovarian
[13] = tested on: K-562 leukemia
[14] = tested on: MOLT-4 leukemia
[15] = tested on: COLO 205 colon
[16] = tested on: KM12 colon
[17] = tested on: CCRF-CEM leukemia
[18] = tested on: OVCAR-4 ovarian
[19] = tested on: SK-MEL-5 melanoma
[20] = tested on: HCT-116 colon
[21] = tested on: MDA-MB-231 breast
[22] = tested on: HS 578T breast
[23] = tested on: T-47D breast
[24] = tested on: HOP-92 NSCLC
[25] = tested on: SK-MEL-2 melanoma
[26] = tested on: SF-295 CNS
[27] = tested on: HL-60(TB) leukemia
[28] = tested on: EKVX NSCLC
[29] = tested on: PC-3 prostate
[30] = tested on: DU-145 prostate
[31] = tested on: SK-MEL-28 melanoma
[32] = tested on: U251 CNS
[33] = tested on: HOP-62 NSCLC
[34] = tested on: BT-549 breast
[35] = tested on: OVCAR-3 ovarian
[36] = tested on: NCI-H23 lung
[37] = tested on: SW-620 colon
[38] = tested on: ACHN renal
[39] = tested on: SN12C renal
[40] = tested on: HCT-15 colon
[41] = tested on: CAKI-1 renal
[42] = tested on: UACC-62 melanoma
[43] = tested on: SNB-75 CNS
[44] = tested on: SK-OV-3 ovarian
[45] = tested on: SR leukemia
[46] = tested on: A498 renal
[47] = tested on: HT29 colon
[48] = tested on: RXF 393 renal
[49] = tested on: MDA-MB-435
[50] = tested on: 786-0 renal
[51] = tested on: OVCAR-8 ovarian
[52] = tested on: NCI/ADR-RES ovarian
[53] = tested on: SF-539 CNS
[54] = tested on: LOX IMVI melanoma
[55] = tested on: MCF7 breast
[56] = tested on: UO-31 renal
[57] = tested on: IGROV1 ovarian

For `C=C1CC[C@@H]2[C@](C)(COC(C)=O)[C@H](OC(C)=O)CC[C@@]2(C)[C@@H]1CC(Nc1ccc(S(=O)(=O)Nc2nccc(C)n2)cc1)C1=CCOC1=O` (some centres undefined), the GI50 [1] was 4.8 µM, the TGI [1] was 16.4 µM and the GI50 [2] was 4.94 µM. The TGI [2] was 15.8 µM, the GI50 [3] was 4.88 µM and the TGI [3] was 18.3 µM. For the same compound, the GI50 [4] was 2.33 µM, the TGI [4] was 5.91 µM and the GI50 [5] was 4.98 µM. It also gave a TGI [5] of 17.9 µM, a GI50 [6] of 2.81 µM and a TGI [6] of 10.8 µM. It also gave a GI50 [7] of 6.3 µM, a TGI [7] of 20.7 µM and a GI50 [8] of 6.19 µM. It also gave a TGI [8] of 20.9 µM, a GI50 [9] of 1.95 µM and a TGI [9] of 6.84 µM. For the same compound, the GI50 [10] was 1.26 µM, the TGI [10] was 3.1 µM and the GI50 [11] was 8.19 µM. It also gave a TGI [11] of 21.9 µM, a GI50 [12] of 3.86 µM and a TGI [12] of 12.8 µM. The GI50 [13] was 2.97 µM, the TGI [13] was 21.7 µM and the GI50 [14] was 3.22 µM. It also gave a TGI [14] of 17.9 µM, a GI50 [15] of 2.09 µM and a TGI [15] of 4.66 µM. The GI50 [16] was 4.59 µM, the TGI [16] was 16.4 µM and the GI50 [17] was 0.073 µM. For the same compound, the TGI [17] was 3.09 µM, the GI50 [18] was 4.37 µM and the TGI [18] was 15.8 µM. For the same compound, the GI50 [19] was 3.79 µM, the TGI [19] was 14 µM and the GI50 [20] was 1.6 µM. For the same compound, the TGI [20] was 3.56 µM, the GI50 [21] was 3.62 µM and the TGI [21] was 10.2 µM. For the same compound, the GI50 [22] was 6.65 µM, the TGI [22] was 43 µM and the GI50 [23] was 2.77 µM. For the same compound, the TGI [23] was 8.33 µM, the GI50 [24] was 6.24 µM and the TGI [24] was 18.9 µM. For the same compound, the GI50 [25] was 6.01 µM, the TGI [25] was 20 µM and the GI50 [26] was 12.4 µM. For the same compound, the TGI [26] was 25.6 µM, the GI50 [27] was 2.1 µM and the TGI [27] was 5.63 µM. It also gave a GI50 [28] of 13.9 µM, a TGI [28] of 27.1 µM and a GI50 [29] of 4.46 µM. The TGI [29] was 15.7 µM, the GI50 [30] was 3.36 µM and the TGI [30] was 11.8 µM. It also gave a GI50 [31] of 2.83 µM, a TGI [31] of 10.1 µM and a GI50 [32] of 3.17 µM. The TGI [32] was 10.7 µM, the GI50 [33] was 10.3 µM and the TGI [33] was 22.5 µM. For the same compound, the GI50 [34] was 2.3 µM, the TGI [34] was 5.61 µM and the GI50 [35] was 1.76 µM. It also gave a TGI [35] of 3.36 µM, a GI50 [36] of 3.78 µM and a TGI [36] of 16 µM. For the same compound, the GI50 [37] was 1.6 µM, the TGI [37] was 3.68 µM and the GI50 [38] was 3.64 µM. The TGI [38] was 13 µM, the GI50 [39] was 2.64 µM and the TGI [39] was 6.17 µM. It also gave a GI50 [40] of 1.79 µM, a TGI [40] of 4.24 µM and a GI50 [41] of 3.56 µM. It also gave a TGI [41] of 12.5 µM, a GI50 [42] of 2.38 µM and a TGI [42] of 7.13 µM. The GI50 [43] was 2.69 µM, the TGI [43] was 14.9 µM and the GI50 [44] was 12.7 µM. The TGI [44] was 25.3 µM, the GI50 [45] was 0.753 µM and the TGI [45] was > 100 µM. It also gave a GI50 [46] of 14.8 µM, a TGI [46] of 28.4 µM and a GI50 [47] of 2.02 µM. The TGI [47] was 4.24 µM, the GI50 [48] was 2.33 µM and the TGI [48] was 4.18 µM. For the same compound, the GI50 [49] was 2.92 µM, the TGI [49] was 10.4 µM and the GI50 [50] was 2.27 µM. It also gave a TGI [50] of 5.06 µM, a GI50 [51] of 2.61 µM and a TGI [51] of 8.56 µM. It also gave a GI50 [52] of 2.94 µM, a TGI [52] of 13.5 µM and a GI50 [53] of 2.07 µM. It also gave a TGI [53] of 4.73 µM, a GI50 [54] of 1.53 µM and a TGI [54] of 3.24 µM. For the same compound, the GI50 [55] was 2.27 µM, the TGI [55] was 12.5 µM and the GI50 [56] was 2.91 µM. The TGI [56] was 10.6 µM, the GI50 [57] was 3.62 µM and the TGI [57] was 13.6 µM.
